# Measurements reported in US9468607B2, “Ligand directed toroidal nanoparticles for therapy and diagnostic imaging” (WASHINGTON UNIVERSITY, priority 2007, dated 2016).
# Like-named read-outs stand apart in the source and are kept apart here.
# Columns and labels:
# [1] = Drug loading efficiency by reverse phase HPLC; type: physicochemical; settings: drug encapsulated in nanoparticles
# Experimental: Amphiphilic polymer (˜30 mg) was taken up in 3 mL of anhydrous chloroform (Aldrich, Inc.) and gently vortexed for 2 min. The organic phase (with or without the presence of any contrast agent, ˜5 mL of chloroform layer) was dried (anhydrous Na2SO4). Excess of anhydrous chloroform (35 mL) was added to the organic phase and was taken in a 50 mL, long necked test tube. Doxorubicin (0.27 mg/mL) was dissolved in 5 mL of nanopure water (0.2 μM) and was injected followed by gentle vortexing for few minutes. The chloroform was then slowly evaporated under reduced pressure at 45° C. for […], maintaining the pressure at 420-440 mbar. To this, an additional 5 mL of nanopure water (0.2 μM) was injected. The dispersion was sonicated in a Branson ultra sonic bath for ½ h (until a clear dispersion formed) maintaining the bath temperature at 50° C.
# Amphiphilic polymer (˜27 mg) was taken up in 3 mL of anhydrous chloroform (Aldrich, Inc.) and gently vortexed for 2 min. The organic phase (with or without the presence of any contrast agent) was dried (anhydrous Na2SO4). […]
# Doxorubicin was analyzed by reversed-phase HPLC system with Waters 600S as a controller, Waters 626 pump to deliver mobile phase, Waters 717 auto sampler for injection and Waters 474 scanning fluorescence detector at wavelength ex 470 nm/em 555 nm for detection. […]
# [2] = for % Drug remaining: dialysis at 37° C.; for Drug release over 3 days: from nanoparticles, dialysis against 0.9% NaCl, 0.2 mg/ml human serum albumin, 37° C.
Structure (SMILES),loading efficiency [1],"% Drug remaining ([2]; Day 1, in nanoparticles) [%]","% Drug remaining ([2]; Day 2, in nanoparticles) [%]","% Drug remaining ([2]; Day 3, in nanoparticles) [%]",Drug release over 3 days [2]
CC[C@@]1(O)C(=O)OCc2c1cc1n(c2=O)Cc2cc3ccccc3nc2-1 [Camptothecin],99+/−0.1%,93.48,87.57,83.38,20+/−3.5%
COc1cccc2c1C(=O)c1c(O)c3c(c(O)c1C2=O)C[C@@](O)(C(=O)CO)C[C@@H]3O[C@H]1C[C@H](N)[C@H](O)[C@H](C)O1 [Doxorubicin],98+/−0.1%,,,,12+/−0.6%
